Source: PubChem BioAssay (NCI)
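Protocol summary: plate cells (96-well), add compound at 5 concentrations, incubate 48 h, interpolate endpoints linearly. GI50 is the concentration that inhibits growth by half. The concentration for full growth arrest is given as TGI.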

How the values were obtained:
Test in all cases: DTP human tumour cell line panel, 48 h
OVCAR-3 ovarian = tested on: OVCAR-3 ovarian
MOLT-4 leukemia = tested on: MOLT-4 leukemia
SK-OV-3 ovarian = tested on: SK-OV-3 ovarian
K-562 leukemia = tested on: K-562 leukemia
SN12C renal = tested on: SN12C renal
HOP-62 NSCLC = tested on: HOP-62 NSCLC
CCRF-CEM leukemia = tested on: CCRF-CEM leukemia
HCT-116 colon = tested on: HCT-116 colon
NCI-H23 lung = tested on: NCI-H23 lung
HCC-2998 colon = tested on: HCC-2998 colon
SNB-75 CNS = tested on: SNB-75 CNS
HL-60(TB) leukemia = tested on: HL-60(TB) leukemia
UACC-62 melanoma = tested on: UACC-62 melanoma
RPMI-8226 leukemia = tested on: RPMI-8226 leukemia
HS 578T breast = tested on: HS 578T breast
IGROV1 ovarian = tested on: IGROV1 ovarian
M14 melanoma = tested on: M14 melanoma
DU-145 prostate = tested on: DU-145 prostate
OVCAR-8 ovarian = tested on: OVCAR-8 ovarian
CAKI-1 renal = tested on: CAKI-1 renal
LOX IMVI melanoma = tested on: LOX IMVI melanoma
HOP-92 NSCLC = tested on: HOP-92 NSCLC
EKVX NSCLC = tested on: EKVX NSCLC
NCI-H226 lung = tested on: NCI-H226 lung
MCF7 breast = tested on: MCF7 breast
SF-268 CNS = tested on: SF-268 CNS
HCT-15 colon = tested on: HCT-15 colon
T-47D breast = tested on: T-47D breast

N#Cc1c(-c2ccc(Cl)cc2)csc1NC(=O)Nc1ccc(Cl)c(C(F)(F)F)c1
GI50 (OVCAR-3 ovarian): 0.262 µM
TGI (OVCAR-3 ovarian): 1.47 µM
GI50 (MOLT-4 leukemia): 0.605 µM
TGI (MOLT-4 leukemia): 5.06 µM
GI50 (SK-OV-3 ovarian): 2.49 µM
TGI (SK-OV-3 ovarian): 14.4 µM
GI50 (K-562 leukemia): 0.177 µM
TGI (K-562 leukemia): 6.27 µM
GI50 (SN12C renal): 0.348 µM
TGI (SN12C renal): > 50 µM
GI50 (HOP-62 NSCLC): 1.01 µM
TGI (HOP-62 NSCLC): 4.42 µM
GI50 (CCRF-CEM leukemia): 0.243 µM
TGI (CCRF-CEM leukemia): 7.67 µM
GI50 (HCT-116 colon): 0.224 µM
TGI (HCT-116 colon): 6.42 µM
GI50 (NCI-H23 lung): 0.201 µM
TGI (NCI-H23 lung): 16.7 µM
GI50 (HCC-2998 colon): 1.33 µM
TGI (HCC-2998 colon): 17.1 µM
GI50 (SNB-75 CNS): 1.36 µM
TGI (SNB-75 CNS): 7.72 µM
GI50 (HL-60(TB) leukemia): 0.793 µM
TGI (HL-60(TB) leukemia): 2.11 µM
GI50 (UACC-62 melanoma): 0.326 µM
TGI (UACC-62 melanoma): 8.64 µM
GI50 (RPMI-8226 leukemia): 0.153 µM
TGI (RPMI-8226 leukemia): 1.14 µM
GI50 (HS 578T breast): 1.36 µM
TGI (HS 578T breast): 8.24 µM
GI50 (IGROV1 ovarian): 0.626 µM
TGI (IGROV1 ovarian): 18.7 µM
GI50 (M14 melanoma): 1.14 µM
TGI (M14 melanoma): 8.35 µM
GI50 (DU-145 prostate): 0.527 µM
TGI (DU-145 prostate): 11.2 µM
GI50 (OVCAR-8 ovarian): 0.388 µM
TGI (OVCAR-8 ovarian): 15.7 µM
GI50 (CAKI-1 renal): 0.691 µM
TGI (CAKI-1 renal): 5.57 µM
GI50 (LOX IMVI melanoma): 1.14 µM
TGI (LOX IMVI melanoma): 7.38 µM
GI50 (HOP-92 NSCLC): 0.222 µM
TGI (HOP-92 NSCLC): 2.09 µM
GI50 (EKVX NSCLC): 0.385 µM
TGI (EKVX NSCLC): > 50 µM
GI50 (NCI-H226 lung): 1.12 µM
TGI (NCI-H226 lung): 12.4 µM
GI50 (MCF7 breast): 0.229 µM
TGI (MCF7 breast): 11.1 µM
GI50 (SF-268 CNS): 1.29 µM
TGI (SF-268 CNS): 21.3 µM
GI50 (HCT-15 colon): 0.208 µM
TGI (HCT-15 colon): 5.4 µM
GI50 (T-47D breast): 0.106 µM
TGI (T-47D breast): 0.696 µM
